Molecules are shown by their SMILES. Where two headings read alike, the source gives them in different places.

The target in this assay is T1, Human factor D (Homo sapiens, UniProt P00746).
T1 construct: purified from human serum; purchased Complement Technology, Inc; host or cells: human serum
The assay is described as follows: Human Factor D Assay (Factor D inhibition assay). The format is biochemical. As to the method:
Routine changes in starting materials and reaction conditions, readily apparent to those of skill in the art, were used to make the particular compounds disclosed in Table 2.
Human factor D (purified from human serum, Complement Technology, Inc.) at 80 nM final concentration is incubated with test compound at various concentrations for 5 minutes at room temperature in 50 mM Tris, 1M NaCl, pH 7.5. A synthetic substrate Z-L-Lys-SBzl and DTNB (Ellman's reagent) are added to final concentrations of 100 µM each. The increase in color is recorded at OD405 nm in a microplate in kinetic mode over 30 minutes with 30 second time points in a […]. IC50 values are calculated by non-linear regression from the percentage of inhibition of complement factor D activity as a function of test compound concentration.

[1] abbreviates: Factor D 80 nM, substrate Z-L-Lys-SBzl, DTNB, pH 7.5, read-out: IC50.

T1 sequence (P00746 26-253): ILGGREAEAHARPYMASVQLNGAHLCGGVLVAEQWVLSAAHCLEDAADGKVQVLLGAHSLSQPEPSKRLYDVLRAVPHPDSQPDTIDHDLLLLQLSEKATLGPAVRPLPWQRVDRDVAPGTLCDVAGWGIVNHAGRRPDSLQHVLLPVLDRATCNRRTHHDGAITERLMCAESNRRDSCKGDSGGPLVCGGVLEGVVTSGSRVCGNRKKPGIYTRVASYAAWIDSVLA

Take `CC(=O)c1nn(CC(=O)N2C[C@H](F)C[C@H]2C(=O)Nc2cccc(SC(F)(F)F)c2)c2cnccc12` [Compound 53, (2S,4R)-1-(2-(3-acetyl-1H-pyrazolo[3,4-c]pyridin-1-yl)acetyl)-4-fluoro-N-(3-((trifluoro-methyl)thio)phenyl)pyrrolidine-2-carboxamide]: under setting [1], the IC50 (commonly the midpoint of a concentration-inhibition curve) is under 1 µM.
The same measure, in the same setting: next, `O=C(NCc1cccc(Cl)c1F)[C@@H]1C[C@@H](F)CN1C(=O)Cn1nc(P(=O)(O)O)c2ccncc21` [Compound 65]: over 10 µM.
As for `CCOP(=O)(OCC)c1ccc2c(C(C)=O)cn(CC(=O)N3[C@@H]4CCC[C@@H]4C[C@H]3C(=O)NCc3cccc(Cl)c3F)c2c1` [Compound 76, diethyl 1-(2-((2S,3aR,6aR)-2-((3-chloro-2-fluorobenzyl)carbamoyl)-hexahydrocyclopenta[b]pyrrol-1(2H)-yl)-2-oxoethyl)-3-acetyl-1H-indol-6-ylphosphonate], the IC50 (read-out: IC50) was under 1 µM.
In the case of `C=CC1C[C@]1(NC(=O)[C@@H]1C[C@@H](F)CN1C(=O)Cn1cc(C(C)=O)c2ccc(O)cc21)C(=O)NS(=O)(=O)C1CC1` (stereo partly drawn) [Compound 88, (2S,4R)-1-(2-(3-acetyl-6-hydroxy-1H-indol-1-yl)acetyl)-N-((1R)-1-(cyclopropylsulfonylcarbamoyl)-2-vinylcyclopropyl)-4-fluoropyrrolidine-2-carboxamide], the IC50 under setting [1] fell in the range of 1 to 10 µM.
Still for that read-out and setting: in the case of `CC(=O)c1cn(CC(=O)N2CCOC[C@H]2C(=O)NCc2cccc(Cl)c2F)c2cc(C(=O)O)ccc12` [Compound 159, (S)-1-(2-(3-((3-chloro-2-fluorobenzyl)carbamoyl)morpholino)-2-oxoethyl)-3-acetyl-1H-indole-6-carboxylic acid] it was under 1 µM; in that of `CC(=O)c1cn(CC(=O)N2C[C@H](F)C[C@H]2C(=O)NCc2cccc(Cl)c2F)c2ccc(C#Cc3cccc(OC(F)(F)F)c3F)cc12` [Compound 177, (2S,4R)-1-(2-(3-acetyl-5-((2-fluoro-3-(trifluoromethoxy)phenyl)ethynyl)-1H-indol-1-yl)acetyl)-N-(3-chloro-2-fluorobenzyl)-4-fluoropyrrolidine-2-carboxamide], 1 to 10 µM.
Consider `CC(=O)c1cn(CC(=O)N2C[C@H](F)C[C@H]2C(=O)NCc2cccc(Cl)c2F)c2ccc(NC(=O)OC3CC3)cc12` [Compound 186, cyclopropyl (3-acetyl-1-(2-((2S,4R)-2-((3-chloro-2-fluorobenzyl)carbamoyl)-4-fluoropyrrolidin-1-yl)-2-oxoethyl)-1H-indol-5-yl)carbamate], for which the IC50 under setting [1] is under 1 µM.
`NC(=O)c1nn(CC(=O)N2C[C@H](F)C[C@H]2C(=O)Nc2cccc(-c3ccccc3Cl)c2F)c2cc(C(=O)NS(=O)(=O)C3CC3)ccc12` [Compound 212]: the IC50 (pH 7.5, read-out: IC50) was under 1 µM.
The compound `CC(=O)c1cn(CC(=O)N2C[C@H](F)C[C@H]2C(=O)Nc2cccc(Oc3ccccc3)c2)c2cc(OCP(=O)(O)O)ccc12` [Compound 232, (((3-acetyl-1-(2-((2S,4R)-4-fluoro-2-((3-phenoxyphenyl)carbamoyl)pyrrolidin-1-yl)-2-oxoethyl)-1H-indol-6-yl)oxy)methyl)phosphonic acid] showed an IC50 of 1 to 10 µM.

These data come from patent US20170226142A1 (Achillion Pharmaceuticals, Inc., priority 2014, published 2017).
